In BindingDB's records for doi:10.1016/j.ejmech.2014.08.060 (European Molecular Biology Laboratory, 2014):

Assays:
[1] = target: T1, Protein tyrosine phosphatase type IVA 1 (Homo sapiens, UniProt Q93096); experiment: Inhibition of PRL1 (unknown origin) using DiFMUP as fluorogenic phosphate substrate assessed as DiFMUP dephosphorylation
T1 sequence (Q93096 whole entry): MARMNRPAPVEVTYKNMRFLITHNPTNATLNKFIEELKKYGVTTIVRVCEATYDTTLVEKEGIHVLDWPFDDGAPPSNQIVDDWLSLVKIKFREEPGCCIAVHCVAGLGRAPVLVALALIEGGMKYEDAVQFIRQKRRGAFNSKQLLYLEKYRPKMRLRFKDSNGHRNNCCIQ

[2] = target: Protein tyrosine phosphatase type IVA 3 (Homo sapiens, UniProt O75365); experiment: Inhibition of PRL3 (unknown origin) using DiFMUP as fluorogenic phosphate substrate assessed as DiFMUP dephosphorylation
Chain of Protein tyrosine phosphatase type IVA 3 (O75365 whole entry): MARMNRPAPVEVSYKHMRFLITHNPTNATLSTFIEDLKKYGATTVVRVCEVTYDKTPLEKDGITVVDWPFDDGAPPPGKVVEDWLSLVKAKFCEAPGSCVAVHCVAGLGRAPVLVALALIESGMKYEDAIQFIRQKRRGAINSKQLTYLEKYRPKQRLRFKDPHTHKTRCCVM

[3] = target: T2, Protein tyrosine phosphatase type IVA 2 (Homo sapiens, UniProt Q12974); experiment: Inhibition of PRL2 (unknown origin) using DiFMUP as fluorogenic phosphate substrate assessed as DiFMUP dephosphorylation
T2 sequence (Q12974 whole entry): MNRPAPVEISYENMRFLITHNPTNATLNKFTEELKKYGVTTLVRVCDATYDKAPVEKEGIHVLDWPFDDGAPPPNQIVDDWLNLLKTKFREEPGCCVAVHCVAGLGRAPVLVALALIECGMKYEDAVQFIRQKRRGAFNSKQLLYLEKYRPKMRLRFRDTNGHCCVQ

IC50 [1] [µM]	IC50 [2] [µM]	IC50 [3] [µM]	SMILES
209	102	188	O=C(O)c1ccc[n+]2c([O-])c(-c3ccccc3)sc12
35		188	O=C1CSC(=S)N1 [CHEBI:8830]
